Patent publication US11273153B2, “MAPK inhibitors” (EverBrilliant Pharma Pty Ltd, priority 2014, dated 2022)
Where “and” joins values, the source holds several entries; their conditions need not be identical. Equal entries are not always repeated. Where two headings read alike, the source gives them in different places. One block for each compound: values may come before it.

Columns and labels:
[1] = target: inactive non-phosphorylated p38α MAPK (Homo sapiens (Human), UniProt Q16539); assay: Fluorescence polarisation (FP) binding assay, inactive enzyme
inactive non-phosphorylated p38α MAPK, sequence (Q16539 whole entry): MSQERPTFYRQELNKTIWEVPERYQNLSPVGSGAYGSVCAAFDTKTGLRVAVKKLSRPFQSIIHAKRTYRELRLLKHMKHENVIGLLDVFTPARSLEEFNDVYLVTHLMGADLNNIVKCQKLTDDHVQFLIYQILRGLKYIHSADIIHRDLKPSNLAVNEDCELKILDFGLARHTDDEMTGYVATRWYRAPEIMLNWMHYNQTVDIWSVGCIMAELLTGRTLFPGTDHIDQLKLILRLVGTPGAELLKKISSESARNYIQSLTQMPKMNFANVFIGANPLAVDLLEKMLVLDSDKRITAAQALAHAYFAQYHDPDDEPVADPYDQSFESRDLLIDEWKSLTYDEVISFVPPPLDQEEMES
Experimental: (§1) A number of compounds were also assessed for the inhibition of p38α MAPK activity (www.kinase-screen.mrc.ac.uk) in which a radioactive (^33P-labelled ATP) filter binding assay was used to directly measure phosphate incorporation. Table 1 summarises the binding affinities of the synthesised compounds to both forms of the enzyme as well as the inhibitory activities against p38α MAPK. By way of enabling a comparison with a non-thiophene compound the biological testing was also carried out for known inhibitor RWJ67657, shown in table 1.
(§2) FP signals were measured with a PHERAstar microplate reader (BMG Labtech) using black, low-binding half-area 96 well plates (Corning). Each binding data point was carried out in duplicate or triplicate. Data were recorded in millipolarisation (mP) units and measured at an excitation wavelength of 485 nm and an emission wavelength of 520 nm. Tris(hydroxymethyl)aminomethane (Tris) assay buffer was used in all binding experiments and consisted of 10 mM Tris, […] potassium chloride, and 3.5 mM 3-((3-cholamidopropyl)dimethylammonium)-1-propanesulfonate (Chaps) at pH 8.0.
(§3) Test compounds were prepared from dimethylsulfoxide stocks (10 mM). […] Plates were incubated at room temperature for 1 hour and FP signals were recorded. For binding experiments to active p38α MAPK, the FP signals were recorded after 2 hours incubation at room temperature. Data is represented as mean±SEM from two to three independent experiments.

[2] = target: active phosphorylated p38α MAPK (Homo sapiens (Human), UniProt Q16539); assay: Fluorescence polarisation (FP) binding assay, active enzyme
active phosphorylated p38α MAPK, sequence (Q16539 whole entry): as above
Experimental: as §1, §2, §3

p38α MAPK = p38α MAPK (Homo sapiens (Human), UniProt Q16539); assay: Radioactive (33P-labelled ATP) filter binding assay of p38α MAPK activity; assay type: biochemical
p38α MAPK, sequence (Q16539 whole entry): as above
Experimental: as §1

[3] = test system: IL-6 gene expression in monocytic (THP-1) cells; assay: LPS-induced IL-6 gene expression in THP-1 cells; assay type: cell-based; conditions: LPS-stimulated THP-1 cells
Experimental: Certain of the compounds were tested in a cellular assay for suppression of TNF-α and IL-6 gene expression in monocytic (THP-1) cells and the assay results are depicted in FIGS. 2 and 3. A published method was used whereby treating THP-1 cells with LPS induces TNF-α and IL-6 gene expression.

[4] = test system: neonatal rat cardiac myocytes (NCM); assay: Neonatal rat cardiac myocyte hypertrophy (3H-leucine incorporation); assay type: cell-based
Experimental: Neonatal rat cardiac myocyte (NCM) hypertrophy was determined by ^3H-leucine incorporation following a published protocol on the above synthesised compounds using either Angiotensin II (AngII, 100 nM) or TNF-α (10 ng/mL) as the stimulus. ^3H levels were counted in scintillation fluid on a beta counter to determine levels of ^3H-leucine incorporation.

[5] = test system: neonatal rat cardiac fibroblasts (NCF); assay: Neonatal rat cardiac fibroblast collagen synthesis (3H-proline incorporation); assay type: cell-based; conditions: AngII 100 nM stimulus
Experimental: The effect of the compounds on neonatal rat cardiac fibroblasts (NCF) collagen synthesis was determined by measuring ^3H-proline incorporation following a published protocol using AngII (100 nM) as the stimulus. ^3H-proline incorporation was determined in the same way as the cardiac myocyte hypertrophy assay described above.

[6] = test system: neonatal rat cardiac fibroblasts (NCF); assay: NCF cell viability (MTT assay); assay type: cell-based
Experimental: Measurement of NCF cell viability was carried out using a published method with the 3-(4,5-dimethylthiazol-2-yl)-2,5-diphenyltetraxolium bromide (MTT) assay.

[7] = In vitro metabolic stability, human liver microsomes; assay type: in vitro ADME; conditions: for half-life: NADPH-dependent, read-out: Apparent Degradation half-life; for microsomal CLint: read-out: In vitro CLint (μL/min/mg protein)
Experimental: (§4) The metabolic stability of compounds 4.1 and 4.5 was assayed in an in vitro assay which employed liver microsomes. Liver microsomes are valuable models for the determination of hepatic clearance because they contain a number of drug metabolising enzymes, such as the CYP450 enzymes. An in vitro metabolic stability study was conducted using human, rat and mouse liver microsomes as a prediction of the in vivo metabolic clearance. […] From the results, the rates of apparent compound degradation in human, rat and mouse liver microsomes were in agreement with the moderate to high microsome-predicted extraction ratios (EH) for both compounds 4.1 and 4.5.

[8] = In vitro metabolic stability, rat liver microsomes; assay type: in vitro ADME; conditions: for half-life: NADPH-dependent, read-out: Apparent Degradation half-life; for microsomal CLint: read-out: In vitro CLint (μL/min/mg protein)
Experimental: as §4

[9] = In vitro metabolic stability, mouse liver microsomes; assay type: in vitro ADME; conditions: for half-life: NADPH-dependent, read-out: Apparent Degradation half-life; for microsomal CLint: read-out: In vitro CLint (μL/min/mg protein)
Experimental: as §4

[10] = Acute toxicity study in rats; assay type: in vivo, male Sprague-Dawley (SD) rats; conditions: two weeks
Experimental: (§5) An acute toxicity study of compound 4.5 was carried out. In this toxicity study, four male Sprague-Dawley (SD) rats received 150 mg/kg of compound 4.5 twice daily by oral gavage over a period of two weeks. The control group consisting of four male SD rats received 1% carboxymethylcellulose (CMC) in water. Blood samples were collected for analysis at 1 and 12 hours after the first dose and at the 7 and 14 day troughs. The rats were then sacrificed and organs collected for analysis. Individual body weights were measured at day −1, 2, 4, 7, 10 and 14. FIG. 7 indicates the blood results from an acute toxicity study for 4.5.
(§6) The full blood, haemoglobin, haemocrit, red cell count, mean corpuscular haemoglobin, mean corpuscular volume, red cell distribution width, mean corpuscular haemoglobin concentration and liver function were all assessed. […] The CDCO analysed blood samples using HPLC-MS to determine the concentrations of compound 4.5 in rat plasma at different time points (Table 3).

[11] = Plasma concentrations in the acute toxicity study (HPLC-MS); assay type: in vivo, rat; conditions: for Concentration in rat plasma: 150 mg/kg twice daily oral gavage, individual rats 1-4, rat 2 atypical and excluded
Experimental: as §5, §6

[12] = 150 mg/kg twice daily oral gavage

Ki ([1]; Table 1, read-out: Ki (μM, mean ± SEM) inactive p38α): 2.3 ± 0.2 µM
Ki ([1]; Table 6, read-out: Ki ± SEM (μM) to inactive p38α): 2.3 ± 0.2 µM
Ki ([2]; Table 1, read-out: Ki (μM, mean ± SEM) active p38α): 0.6 ± 0.1 µM
Ki ([2]; Table 6, read-out: Ki ± SEM (μM) to active p38α): 0.6 ± 0.1 µM
IC50 (p38α MAPK; Table 1, average of two experiments, read-out: IC50 (μM, mean)): 0.18 µM
IC50 (p38α MAPK; Table 6, read-out: IC50 (mean)): 0.18 µM
Microsome predicted EH [7]: 0.92
half-life [7]: 8 min
microsomal CLint [7]: 219 µL/min/mg
Microsome predicted EH [8]: ~0.91
half-life [8]: ~5 min
microsomal CLint [8]: ~319 µL/min/mg
Microsome predicted EH [9]: ~0.94
half-life [9]: ~5 min
microsomal CLint [9]: ~342 µL/min/mg
Compound: OCCC#Cc1sc(-c2ccc(F)cc2)c(-c2ccncc2)c1CCCc1ccccc1 [Compound 4.1, 4-(5-(4-Fluorophenyl)-3-(3-phenylpropyl)-4-(pyridin-4-yl)thiophen-2-yl)but-3-yn-1-ol]
inhibition of LPS-induced IL-6 gene expression [3]: strong inhibition
suppression of AngII-induced NCM hypertrophy ([4]; AngII 100 nM stimulus): suppression of NCM hypertrophy
suppression of TNF-α-induced NCM hypertrophy ([4]; TNF-α 10 ng/mL stimulus): suppression of NCM hypertrophy
inhibition of AngII-stimulated NCF collagen synthesis [5]: did not suppress AngII-induced NCF collagen synthesis at 1 μM concentration
NCF cell viability ([6]; 10 μM concentration): no affect on NCF cell viability

Compound: OCCC#Cc1cc(-c2ccncc2)c(-c2ccc(F)cc2)s1 [Compound 4.5, 4-(5-(4-Fluorophenyl)-4-(pyridin-4-yl)thiophen-2-yl)but-3-yn-1-ol]
NCF cell viability ([6]; 25 μM concentration): no affect on NCF cell viability
Microsome predicted EH [7]: 0.58
half-life [7]: 71 min
microsomal CLint [7]: 24 µL/min/mg
Microsome predicted EH [8]: 0.78
half-life [8]: 16 min
microsomal CLint [8]: 110 µL/min/mg
Microsome predicted EH [9]: 0.89
half-life [9]: 9 min
microsomal CLint [9]: 184 µL/min/mg
average body weight compared to vehicle group [10, 12]: no difference in the average body weight compared to the vehicle group
full blood, haemoglobin, haemocrit, red cell parameters and liver function, treated vs vehicle [10, 12]: No differences were observed between treated and vehicle groups
liver function [10, 12]: no changes to liverfunction
mass of the spleen [10, 12]: loss in the mass of the spleen
weights of the kidneys, heart and liver [10, 12]: the same as the vehicle group
tolerability in rats ([10]; 300 mg/kg/day): well tolerated
Concentration in rat plasma ([11]; 1 hour post first dose): 1357 nM and 0.9 nM and 325 nM and 327 nM
Concentration in rat plasma ([11]; 12 hours post first dose): 8 nM and 7 nM and 147 nM and 5 nM
Concentration in rat plasma ([11]; 7 day trough): 5 nM and 424 nM and 58 nM and 6 nM
Concentration in rat plasma ([11]; 14 day trough): 7 nM and 105 nM and 32 nM and 14 nM
peak plasma levels relative to the enzyme IC50 value ([11]; intake of 300 mg/kg/day, rat): two to nine times higher
